Source: patent publication US5391540A, “Substituted pyridine compounds” (Rohm and Haas Company, priority 1993, dated 1995)

Tests used:
Format in all cases: in vivo
Prmi = assay: plant injury after spraying emerged plants (Table D); parameters: scale not given here
Procedure, shortened: (§1)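 Seeds or vegetative propagules of annual and perennial species were pressed into steam-sterilized silt loam, covered with 1.27 cm of topsoil/peat-moss/vermiculite mix, and grown on greenhouse benches with subirrigation. Injury was scored on emerged plants after spraying.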

Wibw = assay: as above; parameters: scale not given here
Procedure, shortened: as §1

Vele = assay: as above; parameters: scale not given here
Procedure, shortened: as §1

Hese = assay: as above; parameters: scale not given here
Procedure, shortened: as §1

Lacg = assay: as above; parameters: scale not given here
Procedure, shortened: as §1

Rape = assay: as above; parameters: scale not given here
Text: (§2) Topsoil (silt loam) is sieved through a screen having 1.27 cm openings. In some of the tests the soil was mixed with fertilizer (1225 g/cu. m of 12/5/9 containing isobutylidene diurea), while in other tests the fertilizer was omitted. This mixture is steam sterilized and then placed in aluminum pans 6.985 cm deep having ten holes in the bottom each 0.635 cm in diameter. The soil mixture is compacted to a depth of 1.27 cm. from the top of the pan. A predetermined number of seeds of each of several dicotyledonous and monocotyledonous annual plant species and/or vegetative propagules for the perennial plant species are placed on the soil and pressed into the soil surface. The seeds and/or vegetative propagules are covered with 1.27 cm of a mixture of 50% topsoil and 50% of a mixture of Canadian sphagnum peat moss, vermiculite and a wetting agent. The pans are then placed on a capillary mat on a greenhouse bench and subirrigated as needed. After the plants reach the desired stage (9 to 14 days, 1 to 3 true leaf stage), each pan (except the control pans) is removed to a spraying chamber and sprayed by means of an atomizer, operating at a spray pressure of 170.3 kPa ([…]) at the application rates noted in Table D. In the spray solution is an amount of an emulsifying agent mixture (35% butylamine salt of dodecylbenzenesulfonic acid and 65% tall oil condensed with ethylene oxide in the ratio of 11 mols of ethylene oxide/mol of tall oil) to give a spray solution or suspension. The spray solution or suspension contains a sufficient amount of the candidate chemical in order to give application rates of the active ingredient corresponding to those shown in Table D below while applying a total amount of solution or suspension equivalent to 1870 L/Ha (200 gallons/acre). The pans are returned to the greenhouse and watered as before and the injury to the plants as compared to the control pans is observed at approximately 10-14 days (usually 11 days).
(§3) In the following Table D the legends used to identify the plant species are the same as those used in the preceding Table B.

Cotz = assay: as above; parameters: scale not given here
Text: as §2, §3

Wild Buckwheat = assay: Pre-emergent herbicidal activity (Table A); settings: Fallopia convolvulus, pre-emergence, Wibw, 11.2 kg/ha, 10-14 days, read-out: herbicidal rating (% inhibition)
Procedure, shortened: (§4)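 Compound incorporated into the cover-soil layer over sown seed at a rate equivalent to 11.2 kg/ha (acetone or water carrier). Greenhouse growth with watering as needed; ratings reflect percent inhibition per species, recorded around day 11 (range 10–14).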

Annual Bluegrass = assay: Pre-emergent herbicidal activity (Table A); settings: pre-emergence, Anbg, 11.2 kg/ha, 10-14 days, read-out: herbicidal rating (% inhibition)
Procedure, shortened: as §4

Seedling Johnsongrass = assay: Pre-emergent herbicidal activity (Table A); settings: Sorghum halepense, pre-emergence, Sejg, 11.2 kg/ha, 10-14 days, read-out: herbicidal rating (% inhibition)
Procedure, shortened: as §4

Indian Mustard = assay: Pre-emergent herbicidal activity (Table A); settings: Brassica juncea, pre-emergence, Inmu, 11.2 kg/ha, 10-14 days, read-out: herbicidal rating (% inhibition)
Procedure, shortened: as §4

COC(=O)c1c(OC)nc(C(F)(F)F)c(C(=O)n2ccc(F)n2)c1C1CCC1 [Compound 140, 3-pyridinecarboxylic acid, 4-cyclobuty1-5-[(3-fluoro-1H-pyrazo1-1-yl)carbonyl]-2-methoxy-6-(trifluoromethyl)-, methyl ester]
1: plant injury rating, Wibw (Wibw; 5.6050 kg/ha) | plant injury rating, Cotz (Cotz; 1.1210 kg/ha) | plant injury rating, Cotz (Cotz; 5.6050 kg/ha)
2: plant injury rating, Vele (Vele; 1.1210 kg/ha) | plant injury rating, Vele (Vele; 5.6050 kg/ha) | plant injury rating, Lacg (Lacg; 0.2803 kg/ha) | plant injury rating, Lacg (Lacg; 1.1210 kg/ha)
0: plant injury rating, Prmi (Prmi; 0.2803 kg/ha) | plant injury rating, Prmi (Prmi; 1.1210 kg/ha) | plant injury rating, Prmi (Prmi; 5.6050 kg/ha) | plant injury rating, Wibw (Wibw; 0.2803 kg/ha)
75 to 100%: inhibition at 11200 g/ha (Wild Buckwheat) | inhibition at 11200 g/ha (Annual Bluegrass) | inhibition at 11200 g/ha (Seedling Johnsongrass) | inhibition at 11200 g/ha (Indian Mustard)
3: plant injury rating, Vele (Vele; 0.2803 kg/ha) | plant injury rating, Hese (Hese; 0.2803 kg/ha) | plant injury rating, Hese (Hese; 1.1210 kg/ha) | plant injury rating, Hese (Hese; 5.6050 kg/ha) | plant injury rating, Lacg (Lacg; 5.6050 kg/ha) | plant injury rating, Rape (Rape; 0.2803 kg/ha) | plant injury rating, Rape (Rape; 1.1210 kg/ha) | plant injury rating, Rape (Rape; 5.6050 kg/ha)

COC(=O)c1c(OC)nc(C(F)(F)F)c(C(=O)SC)c1C1CCC1 [Compound 137, 3-pyridinecarboxylic acid, 4-cyclobuty1-2-methoxy-5-[(methylthio)carbonyl]-6-(trifluoromethyl)-, methyl ester]
3: plant injury rating, Wibw (Wibw; 1.1210 kg/ha) | plant injury rating, Vele (Vele; 0.2803 kg/ha) | plant injury rating, Vele (Vele; 1.1210 kg/ha) | plant injury rating, Hese (Hese; 1.1210 kg/ha) | plant injury rating, Hese (Hese; 5.6050 kg/ha) | plant injury rating, Lacg (Lacg; 0.2803 kg/ha) | plant injury rating, Lacg (Lacg; 1.1210 kg/ha) | plant injury rating, Lacg (Lacg; 5.6050 kg/ha) | plant injury rating, Rape (Rape; 0.2803 kg/ha) | plant injury rating, Rape (Rape; 1.1210 kg/ha) | plant injury rating, Rape (Rape; 5.6050 kg/ha)
1: plant injury rating, Prmi (Prmi; 5.6050 kg/ha) | plant injury rating, Hese (Hese; 0.2803 kg/ha) | plant injury rating, Cotz (Cotz; 0.2803 kg/ha)
2: plant injury rating, Wibw (Wibw; 5.6050 kg/ha) | plant injury rating, Vele (Vele; 5.6050 kg/ha) | plant injury rating, Cotz (Cotz; 1.1210 kg/ha) | plant injury rating, Cotz (Cotz; 5.6050 kg/ha)
0: plant injury rating, Prmi (Prmi; 0.2803 kg/ha) | plant injury rating, Prmi (Prmi; 1.1210 kg/ha) | plant injury rating, Wibw (Wibw; 0.2803 kg/ha)
75 to 100%: inhibition at 11200 g/ha (Wild Buckwheat) | inhibition at 11200 g/ha (Annual Bluegrass) | inhibition at 11200 g/ha (Seedling Johnsongrass) | inhibition at 11200 g/ha (Indian Mustard)

COC(=O)c1c(OC)nc(C(F)(F)F)c(C(=O)n2cccn2)c1CC1CC1 [Compound 116, 3-pyridinecarboxylic acid, 4-(cyclopropylmethyl)-2-methoxy-5-(1H-pyrazo1-1-ylcarbonyl)-6-(trifluoromethyl)-, methyl ester]
3: plant injury rating, Vele (Vele; 1.1210 kg/ha) | plant injury rating, Rape (Rape; 1.1210 kg/ha) | plant injury rating, Rape (Rape; 5.6050 kg/ha)
2: plant injury rating, Wibw (Wibw; 1.1210 kg/ha) | plant injury rating, Wibw (Wibw; 5.6050 kg/ha) | plant injury rating, Vele (Vele; 0.2803 kg/ha) | plant injury rating, Vele (Vele; 5.6050 kg/ha) | plant injury rating, Hese (Hese; 1.1210 kg/ha) | plant injury rating, Hese (Hese; 5.6050 kg/ha) | plant injury rating, Lacg (Lacg; 0.0701 kg/ha) | plant injury rating, Lacg (Lacg; 0.2803 kg/ha) | plant injury rating, Lacg (Lacg; 1.1210 kg/ha) | plant injury rating, Lacg (Lacg; 5.6050 kg/ha) | plant injury rating, Rape (Rape; 0.2803 kg/ha)
0: plant injury rating, Prmi (Prmi; 0.0701 kg/ha) | plant injury rating, Prmi (Prmi; 0.2803 kg/ha) | plant injury rating, Prmi (Prmi; 1.1210 kg/ha) | plant injury rating, Prmi (Prmi; 5.6050 kg/ha) | plant injury rating, Cotz (Cotz; 0.0701 kg/ha) | plant injury rating, Cotz (Cotz; 0.2803 kg/ha)
1: plant injury rating, Wibw (Wibw; 0.0701 kg/ha) | plant injury rating, Wibw (Wibw; 0.2803 kg/ha) | plant injury rating, Vele (Vele; 0.0701 kg/ha) | plant injury rating, Hese (Hese; 0.0701 kg/ha) | plant injury rating, Hese (Hese; 0.2803 kg/ha) | plant injury rating, Rape (Rape; 0.0701 kg/ha) | plant injury rating, Cotz (Cotz; 1.1210 kg/ha) | plant injury rating, Cotz (Cotz; 5.6050 kg/ha)
75 to 100%: inhibition at 11200 g/ha (Wild Buckwheat) | inhibition at 11200 g/ha (Annual Bluegrass) | inhibition at 11200 g/ha (Seedling Johnsongrass) | inhibition at 11200 g/ha (Indian Mustard)

COC(=O)c1c(OC)nc(C(F)(F)Cl)c(C(=O)OC)c1CC(C)C [Compound 30, 3,5-pyridinedicarboxylic acid, 2-(chlorodifluoromethyl)-6-methoxy-4-(2-methylpropyl)-, dimethyl ester]
0: plant injury rating, Prmi (Prmi; 0.5605 kg/ha) | plant injury rating, Prmi (Prmi; 1.1210 kg/ha) | plant injury rating, Prmi (Prmi; 5.6050 kg/ha) | plant injury rating, Prmi (Prmi; 8.4075 kg/ha) | plant injury rating, Prmi (Prmi; 11.2100 kg/ha) | plant injury rating, Lacg (Lacg; 1.1210 kg/ha)
1: plant injury rating, Prmi (Prmi; 2.8025 kg/ha) | plant injury rating, Wibw (Wibw; 0.5605 kg/ha) | plant injury rating, Wibw (Wibw; 1.1210 kg/ha) | plant injury rating, Wibw (Wibw; 2.8025 kg/ha) | plant injury rating, Wibw (Wibw; 5.6050 kg/ha) | plant injury rating, Wibw (Wibw; 8.4075 kg/ha) | plant injury rating, Vele (Vele; 0.5605 kg/ha) | plant injury rating, Vele (Vele; 1.1210 kg/ha) | plant injury rating, Vele (Vele; 2.8025 kg/ha) | plant injury rating, Vele (Vele; 5.6050 kg/ha) | plant injury rating, Vele (Vele; 11.2100 kg/ha) | plant injury rating, Hese (Hese; 0.5605 kg/ha) | plant injury rating, Hese (Hese; 1.1210 kg/ha) | plant injury rating, Hese (Hese; 2.8025 kg/ha) | plant injury rating, Hese (Hese; 5.6050 kg/ha) | plant injury rating, Hese (Hese; 11.2100 kg/ha) | plant injury rating, Lacg (Lacg; 0.5605 kg/ha) | plant injury rating, Lacg (Lacg; 8.4075 kg/ha) | plant injury rating, Lacg (Lacg; 11.2100 kg/ha)
2: plant injury rating, Wibw (Wibw; 11.2100 kg/ha) | plant injury rating, Vele (Vele; 8.4075 kg/ha) | plant injury rating, Hese (Hese; 8.4075 kg/ha) | plant injury rating, Lacg (Lacg; 2.8025 kg/ha) | plant injury rating, Lacg (Lacg; 5.6050 kg/ha)

COC(=O)c1c(OC)nc(C(F)(F)F)c(N=CSC)c1CC(C)C [Compound 77, 3-pyridinecarboxylic acid, 2-methoxy-4-(2-methylpropyl)-5-[[(methylthio)methylene]amino]-6-(trifluoromethyl)-, methyl ester]
2: plant injury rating, Lacg (Lacg; 1.1210 kg/ha)
0: plant injury rating, Prmi (Prmi; 1.1210 kg/ha) | plant injury rating, Prmi (Prmi; 2.8025 kg/ha) | plant injury rating, Prmi (Prmi; 5.6050 kg/ha)
3: plant injury rating, Lacg (Lacg; 2.8025 kg/ha) | plant injury rating, Lacg (Lacg; 5.6050 kg/ha) | plant injury rating, Lacg (Lacg; 11.2100 kg/ha)
